In US6881741B2 (ViroChem Pharma Inc., priority 2001, dated 2005):

These molecules were tested against recombinant HCV NS5B (HCV RNA-dependent RNA polymerase) (Hepatitis C virus genotype 1b, UniProt P26663) (assay: biochemical). Details: HCV polymerase activity, list of compounds of Example 27; read-out: IC50 (polymerase activity).
recombinant HCV NS5B (HCV RNA-dependent RNA polymerase), sequence (P26663 2420-3010 limits assumed): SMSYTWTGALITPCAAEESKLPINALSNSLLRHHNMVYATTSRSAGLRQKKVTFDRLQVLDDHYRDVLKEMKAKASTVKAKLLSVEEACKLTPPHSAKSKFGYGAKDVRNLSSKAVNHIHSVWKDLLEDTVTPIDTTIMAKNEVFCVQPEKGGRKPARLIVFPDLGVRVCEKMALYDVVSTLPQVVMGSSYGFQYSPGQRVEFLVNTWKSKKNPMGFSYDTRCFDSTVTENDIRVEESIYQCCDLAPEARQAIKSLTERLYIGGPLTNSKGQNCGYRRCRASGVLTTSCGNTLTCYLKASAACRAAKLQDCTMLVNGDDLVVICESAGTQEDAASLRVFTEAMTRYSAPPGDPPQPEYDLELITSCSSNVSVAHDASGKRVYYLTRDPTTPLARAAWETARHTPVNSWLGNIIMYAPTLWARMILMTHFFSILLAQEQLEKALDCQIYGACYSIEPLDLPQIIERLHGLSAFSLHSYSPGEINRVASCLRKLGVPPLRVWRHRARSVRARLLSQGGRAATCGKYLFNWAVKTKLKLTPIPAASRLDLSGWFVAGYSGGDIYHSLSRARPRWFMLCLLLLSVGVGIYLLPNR

Row | Structure (SMILES) | IC50
1 | CC1CCC(C(=O)N(c2cc(-c3ccc(F)cc3)sc2C(=O)O)C(C)C)CC1 (stereo not drawn) [Compound 559, 5-(4-FLUORO-PHENYL)-3-[ISOPROPYL-(4- METHYL-CYCLOHEXANECARBONYL)- AMINO]-THIOPHENE-2-CARBOXYLIC ACID] | < 5 µM
2 | CC1CCC(C(=O)N(c2cc(-c3ccc(Cl)cc3)sc2C(=O)O)C(C)C)CC1 (stereo not drawn) [Compound 570, 5-(4-CHLORO-PHENYL)-3-[ISOPROPYL-(4- METHYL-CYCLOHEXANECARBONYL)- AMINO]-THIOPHENE-2-CARBOXYLIC ACID] | < 5 µM
3 | CCC(=O)N(Cc1ccccc1C)c1cc(-c2ccccc2)sc1C(=O)O [Compound 427, 3-[(2-METHYL-BENZYL)-PROPIONYL- AMINO]-5-PHENYL-THIOPHENE-2- CARBOXYLIC ACID] | 5 to 20 µM
4 | O=C(O)c1sc(-c2ccccc2)cc1N(Cc1ccccc1Cl)C(=O)C1CC1 [Compound 423, 3-[(2-CHLORO-BENZYL)- CYCLOPROPANECARBONYL-AMINO]-5- PHENYL-THIOPHENE-2-CARBOXYLIC ACID] | > 20 µM
5 | COCC(C)N(C(=O)c1ccc(Cl)cc1Cl)c1cc(-c2ccccc2)sc1C(=O)O (stereo not drawn) [Compound 561, 3-[(2,4-DICHLORO-BENZOYL)-(2- METHOXY-1-METHYL-ETHYL)-AMINO]-5- PHENYL-THIOPHENE-2-CARBOXYLIC ACID] | < 5 µM
6 | O=C(O)c1sc(-c2ccccc2)cc1N(Cc1ccc(C(F)(F)F)cc1)C(=O)C1CCCCC1 [Compound 436, 3-[CYCLOHEXANECARBONYL-(4- TRIFLUOROMETHYL-BENZYL)-AMINO]-5- PHENYL-THIOPHENE-2-CARBOXYLIC ACID] | < 5 µM
7 | Cc1cccc(CN(C(=O)C2CC2)c2cc(-c3ccccc3)sc2C(=O)O)c1 [Compound 466, 3-[CYCLOPROPANECARBONYL-(3- METHYL-BENZYL)-AMINO]-5-PHENYL- THIOPHENE-2-CARBOXYLIC ACID] | 5 to 20 µM
8 | Cc1ccc(S(=O)(=O)Nc2cc(-c3ccc(Cl)cc3)sc2C(N)=O)cc1 [Compound 563, 5-(4-CHLORO-PHENYL)-3-(TOLUENE-4- SULFONYLAMINO)-THIOPHENE-2- CARBOXYLIC ACID AMIDE] | 5 to 20 µM
9 | CC1CCC(C(=O)N(c2cc(-c3ccccc3)sc2C(=O)O)C(C)C)C(=O)C1 (stereo not drawn) [Compound 513, 3-[ISOPROPYL-(4-METHYL-2-OXO- CYCLOHEXANECARBONYL)-AMINO]-5- PHENYL-THIOPHENE-2-CARBOXYLIC ACID] | < 5 µM
10 | O=C(O)c1sc(-c2ccccc2)cc1N(Cc1ccccc1)C(=O)C1CCC1 [Compound 489, 3-(BENZYL-CYCLOBUTANECARBONYL- AMINO)-5-PHENYL-THIOPHENE-2- CARBOXYLIC ACID] | < 5 µM
11 | O=C(O)c1sc(-c2ccccc2)cc1N(Cc1ccc(C(F)(F)F)cc1)C(=O)C1CC1 [Compound 413, 3-[CYCLOPROPANECARBONYL-(4- TRIFLUOROMETHYL-BENZYL)-AMINO]-5- PHENYL-THIOPHENE-2-CARBOXYLIC ACID] | 5 to 20 µM
12 | Cc1ccc(CN(C(=O)C2CC2)c2cc(-c3ccccc3)sc2C(=O)O)cc1 [Compound 469, 3-[CYCLOPROPANECARBONYL-(4- METHYL-BENZYL)-AMINO]-5-PHENYL- THIOPHENE-2-CARBOXYLIC ACID] | 5 to 20 µM
13 | O=C(O)c1sc(-c2ccccc2)cc1N(CC1CCNCC1)C(=O)c1ccccc1Cl [Compound 520, 3-[(2-CHLORO-BENZOYL)-PIPERIDIN-4- YLMETHYL-AMINO]-5-PHENYL- THIOPHENE-2-CARBOXYLIC ACID] | < 5 µM
14 | CC1CCC(C(=O)N(c2cc(-c3ccccc3)sc2C(=O)O)C2CCOCC2)CC1 (stereo not drawn) [Compound 572, 3-[(4-METHYL- CYCLOHEXANECARBONYL)- (TETRAHYDRO-PYRAN-4-YL)-AMINO]-5- PHENYL-THIOPHENE-2-CARBOXYLIC ACID] | < 5 µM
15 | CCC1CCC(C(=O)N(c2cc(-c3ccccc3)sc2C(=O)O)C(C)C)CC1 (stereo not drawn) [Compound 531, 3-[(4-ETHYL-CYCLOHEXANECARBONYL)- ISOPROPYL-AMINO]-5-PHENYL- THIOPHENE-2-CARBOXYLIC ACID] | < 5 µM
16 | CC(C)N(C(=O)[C@H]1CC[C@H](C)C[C@H]1O)c1cc(-c2ccc(F)cc2)sc1C(=O)O [Compound 560] | < 5 µM
17 | COCC(=O)N(Cc1ccc(F)cc1F)c1cc(-c2ccccc2)sc1C(=O)O [Compound 484, 3-[(2,4-DIFLUORO-BENZYL)-(2-METHOXY- ACETYL)-AMINO]-5-PHENYL-THIOPHENE- 2-CARBOXYLIC ACID] | 5 to 20 µM

Same assay, conditions: related polymerase activity (Example 27 list); read-out: IC50

Row | Structure (SMILES) | IC50
18 | Cc1ccc(C(=O)N(C)c2cc(-c3cccc(C(F)(F)F)c3)sc2C(=O)O)cc1 [Compound 274, 3-[METHYL-(4-METHYL-BENZOYL)-AMINO]-5-(3-TRIFLUOROMETHYL-PHENYL)-THIOPHENE-2-CARBOXYLIC ACID] | < 5 µM
19 | O=C(O)c1sc(-c2ccccc2)cc1NS(=O)(=O)c1ccc(F)c(F)c1F [Compound 222, 5-PHENYL-3-(2,3,4-TRIFLUORO-BENZENESULFONYLAMINO)-THIOPHENE-2-CARBOXYLIC ACID] | 5 to 20 µM
20 | Cc1ccccc1S(=O)(=O)Nc1cc(-c2cccc(N)c2)sc1C(=O)O [Compound 164, 5-(3-AMINO-PHENYL)-3-(TOLUENE-2-SULFONYLAMINO)-THIOPHENE-2-CARBOXYLIC ACID] | 5 to 20 µM
21 | Cc1cc(S(=O)(=O)N(Cc2cccc(I)c2)c2cc(-c3ccccc3)sc2C(=O)O)c(C)cc1Cl [Compound 1, 3-[(4-CHLORO-2,5-DIMETHYL-BENZENESULFONYL)-(3-IODO-BENZYL)-AMINO]-5-PHENYL-THIOPHENE-2-CARBOXYLIC ACID] | 5 to 20 µM
22 | Cc1ccc(C(=O)N(C)c2cc(-c3cccc(C)c3)sc2C(=O)O)cc1 [Compound 268, 3-[METHYL-(4-METHYL-BENZOYL)-AMINO]-5-M-TOLYL-THIOPHENE-2-CARBOXYLIC ACID] | < 5 µM
23 | CN(C(=O)c1ccc(C(C)(C)C)cc1)c1cc(-c2ccccc2)sc1C(=O)O [Compound 247, 3-[(4-TERT-BUTYL-BENZOYL)-METHYL-AMINO]-5-PHENYL-THIOPHENE-2-CARBOXYLIC ACID] | 5 to 20 µM
24 | Cc1ccccc1S(=O)(=O)Nc1cc(-c2cn[nH]c2)sc1C(=O)O [Compound 170, 5-(1H-PYRAZOL-4-YL)-3-(TOLUENE-2-SULFONYLAMINO)-THIOPHENE-2-CARBOXYLIC ACID] | < 5 µM
25 | Cc1ccc(C(=O)N(Cc2ccc(Cl)cc2)c2cc(-c3ccccc3)sc2C(=O)O)cc1 [Compound 341, 3-[(4-CHLORO-BENZYL)-(4-METHYL- BENZOYL)-AMINO]-5-PHENYL- THIOPHENE-2-CARBOXYLIC ACID] | < 5 µM
26 | Cc1ccccc1S(=O)(=O)Nc1cc(-c2ccc(-c3ccc(Br)cc3)cc2)sc1C(=O)O [Compound 124, 5-(4′-BROMO-BIPHENYL-4-YL)-3-(TOLUENE-2-SULFONYLAMINO)-THIOPHENE-2-CARBOXYLIC ACID] | < 5 µM
27 | CCN(C(=O)CCC1CCCC1)c1cc(-c2ccccc2)sc1C(=O)O [Compound 392, 3-[(3-CYCLOPENTYL-PROPIONYL)- ETHYL-AMINO]-5-PHENYL-THIOPHENE-2- CARBOXYLIC ACID] | < 5 µM
28 | CCOC(=O)c1c(C)oc(-c2ccc(Cl)cc2)c1S(=O)(=O)Nc1cc(-c2ccccc2)sc1C(=O)O [Compound 144, 4-(2-CARBOXY-5-PHENYL-THIOPHEN-3-YLSULFAMOYL)-5-(4-CHLORO-PHENYL)-2-METHYL-FURAN-3-CARBOXYLIC ACID ETHYL ESTER] | 5 to 20 µM
29 | CC(C)N(C(=O)c1ccc(C(F)(F)F)cc1)c1cc(-c2ccccc2)sc1C(=O)O [Compound 243, 3-[ISOPROPYL-(4-TRIFLUOROMETHYL-BENZOYL)-AMINO]-5-PHENYL-THIOPHENE-2-CARBOXYLIC ACID] | < 5 µM
30 | O=C(O)c1sc(-c2ccccc2)cc1NC(=O)N1CCN(c2ccc(F)cc2)CC1 [Compound 157, 3-{[4-(4-FLUORO-PHENYL)-PIPERAZINE-1-CARBONYL]-AMINO}-5-PHENYL-THIOPHENE-2-CARBOXYLIC ACID] | > 20 µM
31 | O=C(Nc1cc(-c2ccccc2)sc1C(=O)O)c1cccs1 [Compound 74, 5-PHENYL-3-[(THIOPHENE-2-CARBONYL)-AMINO]-THIOPHENE-2-CARBOXYLIC ACID] | 5 to 20 µM
32 | O=C(O)c1sc(-c2ccccc2)cc1N(C(=O)c1ccc(Cl)cc1Cl)C1CC1 [Compound 333, 3-[CYCLOPROPYL-(2,4-DICHLORO- BENZOYL)-AMINO]-5-PHENYL- THIOPHENE-2-CARBOXYLIC ACID] | < 5 µM
33 | O=C(O)c1sc(-c2ccccc2)cc1NS(=O)(=O)c1cc(F)c(Br)cc1F [Compound 138, 3-(4-BROMO-2,5-DIFLUORO-BENZENESULFONYLAMINO)-5-PHENYL-THIOPHENE-2-CARBOXYLIC ACID] | < 5 µM
34 | C=CCN(C(=O)Cc1ccc(F)cc1F)c1cc(-c2ccccc2)sc1C(=O)O [Compound 351, 3-{ALLYL-[2-(2,4-DIFLUORO-PHENYL)- ACETYL]-AMINO}-5-PHENYL-THIOPHENE- 2-CARBOXYLIC ACID] | 5 to 20 µM
35 | Cc1ccccc1S(=O)(=O)Nc1cc(-c2cccnc2)sc1C(=O)O [Compound 87, 5-PYRIDIN-3-YL-3-(TOLUENE-2-SULFONYLAMINO)-THIOPHENE-2-CARBOXYLIC ACID] | < 5 µM
36 | C=CCN(C(=O)c1ccc(C)cc1)c1cc(-c2ccc(/C=C/C(=O)O)cc2)sc1C(=O)O [Compound 312, 3-[ALLYL-(4-METHYL-BENZOYL)-AMINO]- 5-[4-(2-CARBOXY-VINYL)-PHENYL]- THIOPHENE-2-CARBOXYLIC ACID] | < 5 µM
37 | Cc1ccc(S(=O)(=O)Nc2cc(-c3ccc(F)cc3)sc2C(=O)O)cc1 [Compound 6, 5-(4-FLUORO-PHENYL)-3-(TOLUENE-4-SULFONYLAMINO)-THIOPHENE-2-CARBOXYLIC ACID] | < 5 µM
38 | Cc1ccc(C(=O)N(C)c2cc(-c3cccc(F)c3)sc2C(=O)O)cc1 [Compound 213, 5-(3-FLUORO-PHENYL)-3-[METHYL-(4-METHYL-BENZOYL)-AMINO]-THIOPHENE-2-CARBOXYLIC ACID] | < 5 µM
39 | Cc1cccc(-c2cc(N(C(=O)c3ccc(Cl)cc3Cl)C(C)C)c(C(=O)O)s2)c1 [Compound 357, 3-[(2,4-DICHLORO-BENZOYL)- ISOPROPYL-AMINO]-5-M-TOLYL- THIOPHENE-2-CARBOXYLIC ACID] | < 5 µM
